BindingDB's records for doi:10.1021/jm00020a026 (University of Michigan, 1995)

Assay: antiviral activity in Human immunodeficiency virus-1 as reverse transcriptase activity in culture supernatant
`NC(=O)c1cn(C2OC(CO)C(O)C2F)c2ncnc(N)c12` (stereo unspecified) [4-Amino-7-(3-fluoro-4-hydroxy-5-hydroxymethyl-tetrahydro-furan-2-yl)-7H-pyrrolo[2,3-d]pyrimidine-5-carboxylic acid amide] showed an IC50 of 20 nM.
`N#Cc1cn([C@H]2O[C@H](CO)[C@@H](O)[C@@H]2F)c2ncnc(N)c12` showed an IC50 greater than 100000 nM.
`N#Cc1c(Br)n([C@H]2O[C@H](CO)[C@@H](O)[C@@H]2F)c2ncnc(N)c12` gave an IC50 of 32000 nM.
`Cc1cn([C@H]2C[C@H](N=[N+]=[N-])[C@@H](CO)O2)c(=O)[nH]c1=O` [1-((2R,4S,5S)-4-Azido-5-hydroxymethyl-tetrahydro-furan-2-yl)-5-methyl-1H-pyrimidine-2,4-dione] gave an IC50 of 11 nM.
For `NC(=S)c1cn(C2OC(CO)C(O)C2F)c2ncnc(N)c12` (stereo unspecified) [4-Amino-7-(3-fluoro-4-hydroxy-5-hydroxymethyl-tetrahydro-furan-2-yl)-7H-pyrrolo[2,3-d]pyrimidine-5-carbothioic acid amide], the IC50 was 70 nM.
With `N#Cc1cn([C@@H]2O[C@H](CO)[C@@H](O)[C@@H]2F)c2ncnc(N)c12` the IC50 was 12000 nM.
